Measured values as given in patent EP0073758B1, “TREATMENT OF INFLAMMATORY VIRAL INFECTIONS, ACNE, DERMATITIS AND ARTHRITIS CONDITIONS” (priority 1981, dated 1982).

Key:
[1] = solubility in DMSO; format: physicochemical; settings: per one milliliter DMSO; maximum solubility not determined
Method: Topical applications were prepared for the treatment of the external conditions, deseases and symptoms of arthritis, rheumatism, and rheumatoid arthritis or similar conditions. Phenolphthalein was formulated with a topical carrier of dimethyl sulfoxide (DMSO) to aid in the application of phenolphthalein to, and its absorption into, the affected area for the relief of pain and the treatment of the area. It has been discovered that DMSO is an especially effective solvent for phenolphthalein. As little as one milliliter of liquid DMSO will dissolve two-hundred milligrams of phenolphthalein, or powders containing phenolphthalein. This factor coupled with the known ability of DMSO to penetrate organic tissue are believed to allow smaller dosages of phenolphthalein to be used in both oral and topical applications as well as in preparation of injectable solutions. For example the DMSO/phenol- phthalein solution can be formulated into topical carriers which should enhance the penetration of phenolphthalein into the skin, or ingested.

[2] = system: Herpes Simplex infections; experiment: oral dosages administered to victims of Herpes Simplex infections; format: in vivo
[3] = topical application in acne; format: in vivo; settings: 500 milligrams in 57 g of carrier
Source text: In preparing topical applications for the treatment of external conditions, such as dermatitis and acne as well as arthritis, rheumatism, and related conditions, it is within the scope of the invention to formulate phenolphthalein with suitable carriers and bases to aid in the application to, or absorption into, the target or affected area. One group of carriers is the oil-based carriers for external application this group includes dimethyl sulfoxide (DMSO), petrolatum, mineral oil, and anhydrous lanolin. In most topical applications the concentration of the phenolphthalein in the carrier may vary widely. […] It is believed that a concentration of at least about 250 milligrams per 28 g of carrier will be effective.

[4] = stated as well known; cited from earlier work
[5] = system: Herpes Labialis; format: in vivo, patients
Method: In an informal clinical study 41 patients with symptoms of Herpes Labialis were treated with oral dosages of phenolphthalein. The patients were treated at different times over a period of about two months. The initial dosage was one hundred milligrams administered every 8 hours for the first day and every 12 hours thereafter. […] Of the 41 patients treated, 39 made complete recovery within two days without any noticeable development of the cold sore. The other two patients made complete recovery with no swelling or visible evidence of the cold sore remaining after three days. A control group of 24 patients with Herpes Labialis history were selected at random from clinical files as a control group. Of the 24 patients, 5 were excluded because of the total absence of early indications of infection. The other 19 patients were treated conventionally over a 10 day period. Only 4 experienced even partial relief from developing cold sores and 15 developed active cold sores and blisters which lasted up to 4 weeks.
The results of this informal study indicate that phenolphthalein is a very effective drug for preventing and arresting the development of cold sores and blisters at the time of initial appearance in patients.

[6] = oral dosages against canker sores; format: in vivo
[7] = ingested into the human body; rest excreted in the feces; cited from earlier work

amount dissolved by one milliliter of liquid DMSO [1]: two-hundred
Compound: O=C1OC(c2ccc(O)cc2)(c2ccc(O)cc2)c2ccccc21 [phenolphthalein, 3,3 - Bis(p - hydroxyphenyl) - phthalide]
treatment of Herpes Simplex infections, including cold sores, fever blisters and Herpes Genitalis [2]: successfully administered
effect against acne [3]: effective against acne
solubility in water [4]: highly insoluble in water
laxative effect ([5]; human, in vivo, po): complaints related to the laxative effect
patients who made complete recovery within two days without any noticeable development of the cold sore ([5]; of the 41 patients treated, oral, initially one hundred milligrams, later 30 milligrams, every 8 hours first day, every 12 hours thereafter): 39
patients who made complete recovery with no swelling or visible evidence of the cold sore remaining after three days ([5]; of the 41 patients treated, same oral regimen): two
follow-up observations: development of Herpes Labialis ([5]; the 41 patients treated): no development of Herpes Labialis
relief and cure of canker sores [6]: effective to relieve and cure canker sores within a matter of hours
active drug in solution absorbed into the blood stream [7]: less than 15%
